The text below walks through data of BindingDB's records for doi:10.1016/s0960-894x(01)00026-9 (University of Minnesota, 2001).

Assay [1] can be described thus: Inhibitory concentration against Protein phosphatase 2A (25 nM) isolated from bovine myocardial tissue.
Assay [2] deals with Serine/threonine-protein phosphatase PP1 catalytic subunit (Oryctolagus cuniculus). As to the kind of experiment: Inhibitory concentration against Protein phosphatase 1(10 nM) isolated from rabbit muscle.

Broadly, the IC50 is the midpoint of a concentration-inhibition curve. A high value points to weaker potency.

Turning to `C=C1[C@@H](O)[C@@H]2O[C@]3(CCCO3)CC[C@H]2O[C@@H]1[C@@H](O)C[C@H](C)[C@H]1O[C@@]2(CCCCO2)CC[C@H]1C` [okadaic acid analogue], the half-maximal inhibitory concentration (IC50) in assay [1] was > 1000 µM. `C=C1[C@@H](O)[C@@H]2O[C@]3(CC[C@H](/C=C/[C@@H](C)[C@@H]4CC(C)=C[C@@]5(O[C@H](C[C@@](C)(O)C(=O)O)CC[C@H]5O)O4)O3)CC[C@H]2O[C@@H]1CO` [okadaic acid analogue]: the IC50 amounted to 94 µM in assay [2] and 0.304 µM in assay [1]. On to `C=C1[C@@H](O)[C@@H]2O[C@]3(CC[C@H](/C=C/[C@@H](C)[C@@H]4CC(C)=C[C@@]5(O[C@H](C[C@@](C)(O)C(=O)O)CC[C@H]5O)O4)O3)CC[C@H]2O[C@@H]1[C@@H](O)C[C@H](C)[C@H]1O[C@@]2(CCCCO2)CC[C@H]1C` [okadaic acid analogue], for which the 50% inhibitory concentration (IC50) in assay [1] was found to be 0.007 µM.
